Results: ChEMBL document CHEMBL1201862, “PubChem BioAssay data set” (2004)
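In this assay, cells in 96-well plates receive the compound at five concentrations for 48 hours. Endpoints are linearly interpolated between the surrounding concentrations. GI50 marks 50% less growth.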 Calls of active or inactive are those of the source. Rule as the data show it: active = GI50 up to about 1.1 µM and inactive = higher.

Columns and labels:
Test in all cases: NCI-60 cell line screen, 48 h
MCF7 = system: MCF7
M19-MEL = system: M19-MEL
OVCAR-8 = system: OVCAR-8
NCI-H522 = system: NCI-H522
SN12C = system: SN12C
NCI-H23 = system: NCI-H23
SF-539 = system: SF-539
UO-31 = system: UO-31
DMS-114 = system: DMS-114
RPMI-8226 = system: RPMI-8226
SW-620 = system: SW-620
HOP-18 = system: HOP-18
Malme-3M = system: Malme-3M
LOX IMVI = system: LOX IMVI
SNB-75 = system: SNB-75
HCT-116 = system: HCT-116
OVCAR-3 = system: OVCAR-3
NCI/ADR-RES = system: NCI/ADR-RES
SNB-78 = system: SNB-78
NCI-H226 = system: NCI-H226
SK-MEL-2 = system: SK-MEL-2
UACC-257 = system: UACC-257
OVCAR-5 = system: OVCAR-5
RXF 393 = system: RXF 393
HT-29 = system: HT-29
MOLT-4 = system: MOLT-4
HL-60 = system: HL-60
K562 = system: K562
DLD-1 = system: DLD-1
SNB-19 = system: SNB-19
SK-OV-3 = system: SK-OV-3
COLO 205 = system: COLO 205
HCT-15 = system: HCT-15
HCC 2998 = system: HCC 2998
CCRF-CEM = system: CCRF-CEM
U-251 = system: U-251
OVCAR-4 = system: OVCAR-4
KM12 = system: KM12
UACC-62 = system: UACC-62
HOP-92 = system: HOP-92
DMS-273 = system: DMS-273
SF-268 = system: SF-268
SK-MEL-28 = system: SK-MEL-28
SK-MEL-5 = system: SK-MEL-5
KM-20L2 = system: KM-20L2
A498 = system: A498
HOP-62 = system: HOP-62
IGROV-1 = system: IGROV-1
EKVX = system: EKVX
NCI-H460 = system: NCI-H460
XF498 = system: XF498
SF-295 = system: SF-295
A549 = system: A549
CAKI-1 = system: CAKI-1
ACHN = system: ACHN
LXFL 529 = system: LXFL 529
M14 = system: M14
786-0 = system: 786-0
TK-10 = system: TK-10

With `COc1cc(/C=C/C(=O)Oc2ccc(NC(C)=O)cc2)ccc1C(=O)O/C=C/c1ccccc1` the GI50 (MCF7) was > 100 µM (inactive), the GI50 (M19-MEL) was > 100 µM (inactive) and the GI50 (OVCAR-8) was > 100 µM (inactive). For the same molecule, the GI50 (NCI-H522) was > 100 µM (inactive), the GI50 (SN12C) was > 100 µM (inactive) and the GI50 (NCI-H23) was > 100 µM (inactive). For the same molecule, the GI50 (SF-539) was > 100 µM (inactive), the GI50 (UO-31) was 76.4 µM (inactive) and the GI50 (DMS-114) was > 100 µM (inactive). The GI50 (RPMI-8226) was > 100 µM (inactive), the GI50 (SW-620) was > 100 µM (inactive) and the GI50 (HOP-18) was > 100 µM (inactive). The GI50 (Malme-3M) was > 100 µM (inactive), the GI50 (LOX IMVI) was > 100 µM (inactive) and the GI50 (SNB-75) was > 100 µM (inactive). The GI50 (HCT-116) was > 100 µM (inactive), the GI50 (OVCAR-3) was > 100 µM (inactive) and the GI50 (NCI/ADR-RES) was > 100 µM (inactive). For the same molecule, the GI50 (SNB-78) was > 100 µM (inactive), the GI50 (NCI-H226) was > 100 µM (inactive) and the GI50 (SK-MEL-2) was > 100 µM (inactive). The GI50 (UACC-257) was > 100 µM (inactive), the GI50 (OVCAR-5) was > 100 µM (inactive) and the GI50 (RXF 393) was > 100 µM (inactive). The GI50 (HT-29) was > 100 µM (inactive), the GI50 (MOLT-4) was 66.8 µM (inactive) and the GI50 (HL-60) was > 100 µM (inactive). For the same molecule, the GI50 (K562) was > 31.6 µM (inactive), the GI50 (DLD-1) was > 100 µM (inactive) and the GI50 (SNB-19) was > 100 µM (inactive). The GI50 (SK-OV-3) was > 100 µM (inactive), the GI50 (COLO 205) was > 100 µM (inactive) and the GI50 (HCT-15) was greater than 100 µM. For the same molecule, the GI50 (HCC 2998) was > 100 µM (inactive), the GI50 (CCRF-CEM) was > 100 µM (inactive) and the GI50 (U-251) was > 100 µM (inactive). For the same molecule, the GI50 (OVCAR-4) was > 100 µM (inactive), the GI50 (KM12) was > 100 µM (inactive) and the GI50 (UACC-62) was > 100 µM (inactive). For the same molecule, the GI50 (HOP-92) was > 100 µM (inactive), the GI50 (DMS-273) was > 100 µM (inactive) and the GI50 (SF-268) was > 100 µM (inactive). The GI50 (SK-MEL-28) was > 100 µM (inactive), the GI50 (SK-MEL-5) was > 100 µM (inactive) and the GI50 (KM-20L2) was > 100 µM (inactive). The GI50 (A498) was > 100 µM (inactive), the GI50 (HOP-62) was > 100 µM (inactive) and the GI50 (IGROV-1) was > 100 µM (inactive). The GI50 (EKVX) was > 100 µM (inactive), the GI50 (NCI-H460) was > 100 µM (inactive) and the GI50 (XF498) was > 100 µM (inactive). The GI50 (SF-295) was > 100 µM (inactive) and the GI50 (A549) was > 100 µM (inactive).
For `CC(=O)O[C@H]1CC[C@@]2(C)C(=CC[C@@H]3C2CC[C@]2(C)Nc4nc5ccccc5cc4CC32)C1` (some centres undefined), the GI50 (M19-MEL) was 3.59 µM (inactive), the GI50 (OVCAR-8) was 3.13 µM (inactive) and the GI50 (NCI-H522) was 11.4 µM (inactive). The GI50 (SN12C) was 7.1 µM (inactive), the GI50 (NCI-H23) was 12.4 µM (inactive) and the GI50 (SF-539) was 3.78 µM (inactive). The GI50 (UO-31) was 4.92 µM (inactive), the GI50 (DMS-114) was 5.4 µM (inactive) and the GI50 (RPMI-8226) was 8.65 µM (inactive). The GI50 (SW-620) was 2.59 µM (inactive), the GI50 (CAKI-1) was 4.28 µM (inactive) and the GI50 (HOP-18) was 3.94 µM (inactive). The GI50 (Malme-3M) was 6.55 µM (inactive), the GI50 (ACHN) was 4.72 µM (inactive) and the GI50 (SNB-75) was 2.65 µM (inactive). The GI50 (HCT-116) was 1.86 µM (inactive), the GI50 (OVCAR-3) was 2.5 µM (inactive) and the GI50 (LXFL 529) was 3.38 µM (inactive). For the same molecule, the GI50 (SNB-78) was 6.01 µM (inactive), the GI50 (NCI-H226) was 3.05 µM (inactive) and the GI50 (SK-MEL-2) was 17 µM (inactive). The GI50 (UACC-257) was 3.66 µM (inactive), the GI50 (OVCAR-5) was 13.9 µM (inactive) and the GI50 (M14) was 2.19 µM (inactive). The GI50 (RXF 393) was 2.07 µM (inactive), the GI50 (HT-29) was 1.82 µM (inactive) and the GI50 (MOLT-4) was 3.3 µM (inactive). The GI50 (HL-60) was 4.32 µM (inactive), the GI50 (K562) was 3.21 µM (inactive) and the GI50 (DLD-1) was 3.72 µM (inactive). For the same molecule, the GI50 (SNB-19) was 2.97 µM (inactive), the GI50 (SK-OV-3) was 2.82 µM (inactive) and the GI50 (COLO 205) was 7.66 µM (inactive). For the same molecule, the GI50 (786-0) was 3.28 µM (inactive), the GI50 (HCT-15) was 2.51 µM and the GI50 (HCC 2998) was 2.98 µM (inactive). For the same molecule, the GI50 (CCRF-CEM) was 3.54 µM (inactive), the GI50 (U-251) was 2.67 µM (inactive) and the GI50 (OVCAR-4) was 8.53 µM (inactive). The GI50 (KM12) was 3.88 µM (inactive), the GI50 (TK-10) was 5.31 µM (inactive) and the GI50 (UACC-62) was 10.8 µM (inactive). For the same molecule, the GI50 (DMS-273) was 4.82 µM (inactive), the GI50 (SF-268) was 4.2 µM (inactive) and the GI50 (SK-MEL-5) was 4.1 µM (inactive). For the same molecule, the GI50 (KM-20L2) was 1.77 µM (inactive), the GI50 (A498) was 5.47 µM (inactive) and the GI50 (HOP-62) was 13.3 µM (inactive). For the same molecule, the GI50 (IGROV-1) was 11.7 µM (inactive), the GI50 (EKVX) was 5.74 µM (inactive) and the GI50 (NCI-H460) was 4.57 µM (inactive). The GI50 (XF498) was 5.89 µM (inactive), the GI50 (SF-295) was 3.78 µM (inactive) and the GI50 (A549) was 3.34 µM (inactive).
For `C#C[C@]1(O)CCC2C3CCc4cc(Oc5nc(F)nc(-c6c7cc8ccccc8cc7c7n6CCS7)n5)ccc4C3CCC21C` (some centres undefined), the GI50 (M19-MEL) was 30.3 µM (inactive), the GI50 (OVCAR-8) was 53.8 µM (inactive) and the GI50 (NCI-H522) was 21.3 µM (inactive). The GI50 (SN12C) was 41.5 µM (inactive), the GI50 (NCI-H23) was 54.1 µM (inactive) and the GI50 (SF-539) was 30.1 µM (inactive). For the same molecule, the GI50 (UO-31) was > 100 µM (inactive), the GI50 (DMS-114) was 21.5 µM (inactive) and the GI50 (RPMI-8226) was 41.5 µM (inactive). For the same molecule, the GI50 (SW-620) was 44.3 µM (inactive), the GI50 (HOP-18) was > 100 µM (inactive) and the GI50 (Malme-3M) was 53.6 µM (inactive). For the same molecule, the GI50 (LOX IMVI) was 43 µM (inactive), the GI50 (ACHN) was > 100 µM (inactive) and the GI50 (SNB-75) was 32.9 µM (inactive). For the same molecule, the GI50 (HCT-116) was 33 µM (inactive), the GI50 (OVCAR-3) was 44.7 µM (inactive) and the GI50 (LXFL 529) was 39.5 µM (inactive). For the same molecule, the GI50 (SNB-78) was > 100 µM (inactive), the GI50 (NCI-H226) was > 100 µM (inactive) and the GI50 (SK-MEL-2) was 28.8 µM (inactive). The GI50 (UACC-257) was 77.6 µM (inactive), the GI50 (M14) was 29.2 µM (inactive) and the GI50 (RXF 393) was 28.1 µM (inactive). For the same molecule, the GI50 (HT-29) was 26.2 µM (inactive), the GI50 (MOLT-4) was 49.8 µM (inactive) and the GI50 (HL-60) was 36.7 µM (inactive). For the same molecule, the GI50 (K562) was 37.7 µM (inactive), the GI50 (DLD-1) was 54.6 µM (inactive) and the GI50 (SNB-19) was > 100 µM (inactive). The GI50 (SK-OV-3) was 45.4 µM (inactive), the GI50 (COLO 205) was 20.6 µM (inactive) and the GI50 (786-0) was 51.8 µM (inactive). The GI50 (HCC 2998) was 85.5 µM (inactive), the GI50 (CCRF-CEM) was 49.3 µM (inactive) and the GI50 (U-251) was 39.4 µM (inactive). The GI50 (KM12) was 33.1 µM (inactive), the GI50 (TK-10) was 71.3 µM (inactive) and the GI50 (UACC-62) was 20.8 µM (inactive). For the same molecule, the GI50 (HOP-92) was > 100 µM (inactive), the GI50 (DMS-273) was 23.8 µM (inactive) and the GI50 (SF-268) was 56.9 µM (inactive). For the same molecule, the GI50 (SK-MEL-28) was 48.9 µM (inactive), the GI50 (SK-MEL-5) was 25.4 µM (inactive) and the GI50 (KM-20L2) was 32.7 µM (inactive). The GI50 (HOP-62) was 43.3 µM (inactive), the GI50 (IGROV-1) was 50.7 µM (inactive) and the GI50 (EKVX) was 11.4 µM (inactive). The GI50 (NCI-H460) was 33.1 µM (inactive), the GI50 (XF498) was > 100 µM (inactive) and the GI50 (SF-295) was 34 µM (inactive). The GI50 (A549) was 41.3 µM (inactive).
